Data taken from patent publication US20260014278A1, “HYBRID PEPTIDE DENDRIMER SYSTEMS AND EXTRAHEPATIC DELIVERY” (NUNTIUS THERAPEUTICS LIMITED, priority 2022, published 2026).
Values belong to the substance of their own block, whether it stands above or below them.

Key:
[1] = system: Mouse muscle cells (C2c12); experiment: eGFP expression (RFU/mg) in C2c12 muscle cells, muscle-targeting dendrimers; format: cell-based; settings: N:P=0.6:1, DOTMA:DOPE w/w 10:1, 24 hours post-transfection
Description: Cell lines, transfection reagents and mRNA. C2c12 cells were maintained in DMEM medium with 10% (v/v) FCS and 1% (v/v) L-glutamine in a humidified atmosphere in 5% CO2, and 37° C. The Alexa Fluor 488 tagged mRNA, expressing an eGFP, was purchased from RiboPro. The mRNA either expressing an eGFP or firefly luciferase was purchased from Trilink. DOTMA:DOPE, 1:1 (w/w) were obtained from Invitrogen or Encapsula NanoSciences LLC.
Transfection procedure. 24 hours before transfection, C2c12 cells were seeded in 96well plates in order to reach 70% confluence. mRNA transfection complexes were formed by mixing mRNA with the dendrimers in 25 mM HEPES buffer, then with DOTMA:DOPE in 25 mM HEPES buffer at 25° C. The transfection complexes were then overlaid to the cells in full growth medium. The cells were harvested 4 hours after transfection for FACS analysis or 24 hours post transfection for reporter genes assays.
Two variants (NTX2 and NTX3) of the peptide dendrimer GSCG1,2-RL, 3-LR ((LR)8(KRL)4(KRL)2KGSC-NH2) were made which include the ASSLNIA (SEQ ID NO:1) muscle targeting peptide. Transfection of muscle cells with GSCG1,2-RL, 3-LR, NTX2 ((LR)8(KRL)4(KRL)2[…](Acp)-NH2) or NTX3 ((LR)8(KRL)4(KRL)2[…](Acp)-NH2) was performed using eGFP mRNA and transfection efficiency was assayed using either flow cytometry or the transgene expression assay. […]
Transgene expression assay: The cells were washed twice with PBS and incubated with 50 ul of 1× M-PER lysis buffer (Thermo 11874111). […] 40 ul of lysate from each well was transferred to all black 96 well plates for quantification of eGFP relative fluorescence unit (RFU), absorbance at 535 nm, using Molecular devices SpectraMax iD5.
Protein content determination: The protein content of each cell lysate was determined by mixing the lysate (25 μL) with Pierce™ BCA Protein Assay Kit (200 ul, Thermo Scientific). After 30 minutes of 37° C. incubation in at dark, absorbance was measured at 562 nm with Molecular devices SpectraMax iD5 and converted to protein concentration using a BSA standard curve. […]

HeLa cells = experiment: Luciferase plasmid (pCl-Luc) DNA transfection of HeLa cells; format: cell-based, human; settings: for transfection, comparison of generations G1, G2, G3: pCl-Luc with D/D, 24 h, FIG. 16A
Description: (§1) FIG. 15. Comparison of the transfection efficiency of G1,2,3-RL with other commercial transfection reagents including DOTMA/DOPE, Polyethylenimine and Lipofectamine 2000 for DNA delivery. (A) Transfection in HeLa cells without the presence of serum, (B) transfection in HeLa cells with the presence of serum, (C) transfection in Neuro2A cells without the presence of serum and (D) transfection in Neuro2A cells with the presence of serum. Cells transfected with a luciferase-expressing plasmid (pCl-Luc) in the presence of GSCG1,2,3-RL with D/D (measured 24 h after transfection). The luminescence values were normalized by dividing them by the analogous values for cells treated with a D/D DNA complex to generate the % of transfection. Conditions: 1×10^4 cells were transfected with 0.25 μg pCl-Luc for 4 hours without serum or in the presence of 10% serum. Error bars refer to the mean±SEM for experiments carried out in triplicate. […] D/D is DOTMA/DOPE at w/w 1:1.
(§2) FIG. 16. Comparison of the transfection efficiency of dendrimers with different generations (G1, G2 and G3) with different N/P ratios and cationic residues (e.g. KL vs RL) for DNA delivery. (A) Transfection efficiency in HeLa cells, (B) transfection efficiency in Neuro2A cells. Cells transfected with a luciferase-expressing plasmid (pCl-Luc) in the presence of peptide dendrimers with D/D (measured 24 h after transfection). The luminescence values were normalized by dividing them by the analogous values for cells treated with a D/D DNA complex (w/w 1:1, 0.25 μg) to generate the % of transfection. Conditions: 1×10^4 cells were transfected with 0.25 μg pCl-Luc. Error bars refer to the mean±SEM for experiments carried out in triplicate. * denotes p<0.05. D/D is DOTMA/DOPE at w/w 1:1. Generation 2 and generation 3 dendrimers perform better at transfecting both HeLa and Neuro2A cells compared to generation 1 dendrimers.
(§3) Using a third generation peptide dendrimer, GSCG1,2,3-RL, the inventors also compared the transfection efficiency of DNA using this dendrimer to that of commercially available transfection reagents. […]

Neuro2A cells = experiment: Luciferase plasmid (pCl-Luc) DNA transfection of Neuro2A cells; format: cell-based; settings: for transfection, comparison of generations G1, G2, G3: pCl-Luc with D/D, 24 h, FIG. 16B
Description: as §1, §2, §3

[2] = system: macrophage-polarised primary bone marrow derived monocytes; experiment: eGFP mRNA transfection of macrophage-polarised primary mouse bone marrow derived monocytes, flow cytometry; format: cell-based; settings: GSCG1,2-RHL NP=0.6:1, GSCG1,2-RL, 3-LR NP=0.16:1, GSCG1,RL, 2-LR NP=8:1, DOTMA:DOPE w/w 10:1, lipid-only DOTMA/DOPE w/w 3.2:1, FIG. 2
Description: BMDM cells were isolated using the StemCell Tech EasySep Mouse Monocyte Isolation Kit from mouse bone marrow cell suspension. The cells were resuspended in complete medium (DMEM+1% glutamax+10% heat inactivated FBS+1% Pen/Strep) enriched with 50 ng/ml murine M-CSF (1:1000 of 50 μg/ml stock) at 1E+6 cells/mi. 2 million cells (i.e. 2 mL) was seeded in each well of 6-well plate(s). The plate was incubated at 37° C. for 4 days. Half media exchange was performed using complete media enriched with […] murine M-CSF and 40 ng/ml murine IL-4. Cells were then harvested the next day (day 5) by washing cells with PBS and a 10 minute incubation with 5 mM EDTA (diluted in PBS) at 37° C. followed by plate tapping and resuspension. […]
Data were collected using a BD LSRFortessa I analyser running […] software (Beckton Dickinson). All collected data were analysed using FlowJo 10.0 software.
Transfection efficiency of macrophage-polarised primary bone marrow derived monocytes using various peptide dendrimer/lipid nanoparticles was assessed and compared to lipid-only nanoparticles (LPX-RNA). Each nanoparticle, with or without dendrimer, included eGFP mRNA to allow analysis of absolute numbers of cells transfected to be assessed by flow cytometry. […]

[3] = Dynamic light scattering: hydrodynamic size and polydispersity index (PDI) of nanoparticles; format: physicochemical; settings: peptide dendrimer, lipid and mRNA complexes; N:P 8:1, DOTMA/DOPE w/w 10:1 to mRNA
Description: (§4) The hydrodynamic size was measured using the dynamic light scattering (DLS) technique. DLS is a very sensitive, non-invasive method to measure size and size distribution of nanoparticles in a liquid. […] Analysing these intensity fluctuations allows us to calculate the velocity of the Brownian motion. The size of the nanoparticles can be determined by using the Stokes-Einstein relationship. With the latest technology, it can measure nanoparticles smaller than 1 nm.
PDI is used to estimate the average uniformity of a particle solution, The method of cumulants is a standard technique for analysing DLS data on sample polydispersity. PDI is a number calculated from a 2 parameter fit to the correlation data (the cumulants analysis). The cumulants analysis is used to evaluate the autocorrelation function generated by a DLS experiment. The calculation is defined in ISO 13321 and ISO 22412. PDI values greater than 0.7 indicate that the sample has a very broad size distribution and is not suitable for the DLS technique. The calculations for these parameters are defined in the ISO standard document 13321:1996 E and ISO 22412:2008.
as §4, with “Size, zeta potential and polydispersity index (PDI) measurement: The hydrodynamic” for “The hydrodynamic”, “scattering (DLS) technique using the Zetasizer Advance Series—Pro (Malvern Panalytical Ltd, Malvern, UK) according to the manufacturer's instructions. DLS is” for “scattering (DLS) technique. DLS is”
The data obtained with DLS measurements can also be used to calculate the PDI of particle in solution. PDI is used to estimate the average uniformity of a particle solution. The method of cumulants is a standard technique for analysing DLS data on sample polydispersity. PDI is a number calculated from a 2 parameter fit to the correlation data (the cumulants analysis). The cumulants analysis is used to evaluate the autocorrelation function generated by a DLS experiment. The calculation is defined in ISO 13321 and ISO 22412. PDI values greater than 0.7 indicate that the sample has a very broad size distribution and is not suitable for the DLS technique. The calculations for these parameters are defined in the ISO standard document 13321:1996 E and ISO 22412:2008.
To measure the size and PDI, the samples were diluted 16× in 25 mM HEPES buffer (5 μl sample+75 μl buffer). Parameters: reference material: polystyrene latex, dispersant: water, 25° C. The PDI measurements were measured in nanoparticles comprising a dendrimer:nucleic acid NP ratio of 8:1.

Substance: (LR)4(KRL)2KRHCGAASSLNIA-(Acp)-NH2 [NTX5]
increase in eGFP expression compared to RHCG1-RL, 2-LR ([1]; FIG. 10): ˜two-fold

Substance: (KL)2KGSC-NH2 [GSCG1-KL]
transfection, comparison of generations G1, G2, G3 (HeLa cells): do not transfect
transfection, comparison of generations G1, G2, G3 (Neuro2A cells): do not transfect

Substance: (RL)2KGSC-NH2 [GSCG1-RL]
transfection, comparison of generations G1, G2, G3 (HeLa cells): do not transfect
transfection, comparison of generations G1, G2, G3 (Neuro2A cells): do not transfect

Substance: (LR)8(KRL)4(KRL)2KGSCGAASSLNIA(Acp)-NH2 [NTX2]
increase in eGFP expression compared to GSCG1,2-RL, 3-LR ([1]; FIG. 9): two-fold

Polydispersity Index (PDI) [3]: 0.109
Substance: (LR)4(KRL)2KRHC-NH2 [RHCG1-RL, 2-LR]
transfection efficiency [2]: ~50%

Substance: (RL)4(KRL)2KGSC-NH2 [GSCG1,2-RL]
transfection efficiency in comparison to GSCG1,2-KL (HeLa cells; N/P ratio of 10:1 or 20:1, FIG. 16): higher transfection efficiency
transfection efficiency in comparison to GSCG1,2-KL (Neuro2A cells; N/P ratio of 20:1, FIG. 16): higher transfection efficiency
